The results in this text go back to US20250115600A1, “COVALENT MODIFIERS OF AKT1 AND USES THEREOF” (Terremoto Biosciences, Inc., priority 2022, published 2025).

In one test the target is AKT1 E17K mutant protein (Homo sapiens (Human), UniProt P31749, E17K). The test is described as follows: Intact mass spectrometry, covalent complex formation and ARQ-092 competition. The format is binding. The settings on record: for covalent complex formation with AKT1 E17K mutant protein / covalent complex formation with AKT1 E17K mutant protein in presence of competitor: protein 1 μM, compound 1.5 μM, 2 hrs at 37° C., NaBH4 reduction; for covalent complex formation with AKT1 E17K mutant protein: absence of competitor; for covalent complex formation with AKT1 E17K mutant protein in presence of competitor: with ARQ092 (50 μM). On the procedure:
(§1) AKT1 WT or AKT1 E17K (1 μM) was treated with a compound from Table 1 (1.5 μM) for 2 hrs at 37° C., with and without ARQ092 (50 μM) competitor as a specificity control. Reversible imines were captured by reductive amination with 5 mM NaBH4 for 5 min. Reduction reactions were quenched by diluting the sample in equal volume acetonitrile+1% TFA, then analyzed by LCMS.
(§2) FIGS. 1 to 25 provide intact mass spectra for AKT1 WT protein and AKT1 E17K mutant protein after incubation with compounds of the present disclosure and subsequent borohydride reduction. […] Further, FIGS. 1 to 10, 12, and 14 to 25 each provide intact mass spectra following the incubation of an AKT1 protein with a compound of the present disclosure both in the absence of a competitor molecule (i.e., ARQ-092, a molecule known to bind to and inhibit the function of AKT1); and in the presence of a significant stoichiometric excess of a competitor molecule.

Test [1] concerns the target T1, AKT1 WT (Homo sapiens (Human), UniProt P31749). The description is as above. The format is binding. Particulars: protein 1 μM, compound 1.5 μM, 2 hrs at 37° C., NaBH4 reduction; for covalent complex formation with AKT1 WT protein: absence of competitor; for covalent complex formation with AKT1 WT protein in presence of competitor: with ARQ092 (50 μM). On the procedure:
as §1, §2
Target sequence in this assay (P31749 2-480): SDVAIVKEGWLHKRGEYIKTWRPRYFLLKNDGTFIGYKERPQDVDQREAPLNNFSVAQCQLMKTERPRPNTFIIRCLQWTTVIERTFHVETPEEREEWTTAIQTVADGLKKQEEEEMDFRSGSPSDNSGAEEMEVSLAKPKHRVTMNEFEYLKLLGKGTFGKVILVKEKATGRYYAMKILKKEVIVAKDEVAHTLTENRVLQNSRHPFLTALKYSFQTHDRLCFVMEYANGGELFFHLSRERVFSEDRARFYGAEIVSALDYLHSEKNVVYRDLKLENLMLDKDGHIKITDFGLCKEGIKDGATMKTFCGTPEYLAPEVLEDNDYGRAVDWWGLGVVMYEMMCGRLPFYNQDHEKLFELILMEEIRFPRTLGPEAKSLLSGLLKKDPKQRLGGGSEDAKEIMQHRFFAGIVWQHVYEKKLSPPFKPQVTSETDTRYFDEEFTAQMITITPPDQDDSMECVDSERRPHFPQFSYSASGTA

Another test concerns the target AKT1 E17K (Homo sapiens (Human), UniProt P31749, E17K). In words: Live cell target engagement (NanoBRET) in HEK293 cells. Type of test: cell-based. The settings on record: for IC50: HEK293, 2 hours at 37° C. Background: Bioluminescence resonance energy transfer reports proximity on the nanometre scale.
The target in test [2] is T1, AKT1 WT. The description is as above. Type of test: cell-based. Particulars: HEK293, 2 hours at 37° C.
Target sequence in this assay (P31749 whole entry): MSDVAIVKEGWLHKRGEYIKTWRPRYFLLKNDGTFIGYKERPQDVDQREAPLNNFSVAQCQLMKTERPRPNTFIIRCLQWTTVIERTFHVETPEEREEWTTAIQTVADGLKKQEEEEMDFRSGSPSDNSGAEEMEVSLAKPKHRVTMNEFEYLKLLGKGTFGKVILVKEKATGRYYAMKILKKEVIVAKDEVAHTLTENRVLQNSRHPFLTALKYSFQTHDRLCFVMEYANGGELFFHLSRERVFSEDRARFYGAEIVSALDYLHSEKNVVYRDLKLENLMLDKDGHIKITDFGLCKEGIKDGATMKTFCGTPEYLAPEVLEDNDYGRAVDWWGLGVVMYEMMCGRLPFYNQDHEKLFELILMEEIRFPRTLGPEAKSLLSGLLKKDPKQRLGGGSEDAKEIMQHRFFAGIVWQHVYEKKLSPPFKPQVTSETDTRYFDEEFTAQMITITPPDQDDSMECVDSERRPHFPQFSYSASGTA
The target of another test is AKT2 (Homo sapiens (Human), UniProt P31751). The description is as above. The format is cell-based. The settings on record: HEK293, 2 hours at 37° C.
AKT2, sequence (P31751 whole entry): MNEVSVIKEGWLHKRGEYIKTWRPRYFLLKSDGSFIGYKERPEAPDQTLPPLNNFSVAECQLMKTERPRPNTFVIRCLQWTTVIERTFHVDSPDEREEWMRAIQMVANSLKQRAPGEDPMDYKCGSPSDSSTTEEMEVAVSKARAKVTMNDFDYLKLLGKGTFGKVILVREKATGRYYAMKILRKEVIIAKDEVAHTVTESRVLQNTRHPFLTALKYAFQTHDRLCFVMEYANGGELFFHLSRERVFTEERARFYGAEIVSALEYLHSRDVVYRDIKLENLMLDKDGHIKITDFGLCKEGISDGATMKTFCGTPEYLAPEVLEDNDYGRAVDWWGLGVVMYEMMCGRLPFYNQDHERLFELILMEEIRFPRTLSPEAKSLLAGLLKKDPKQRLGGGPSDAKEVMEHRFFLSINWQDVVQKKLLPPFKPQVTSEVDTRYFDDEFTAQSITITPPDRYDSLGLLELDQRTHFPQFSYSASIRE

AKT1 E17K mutant protein, sequence (P31749 2-480 E17K): as the sequence (P31749 2-480) above, with E16K counted along it
AKT1 E17K, sequence (P31749 whole entry E17K): as the sequence (P31749 whole entry) above, with E17K counted along it

As to `Nc1ncccc1-c1nc2ccc(-c3ccccc3)nc2n1-c1ccc(CNC(=O)c2cc(F)c(O)c(C=O)c2)cc1` [Compound 53, N-({4-[2-(2-aminopyridin-3-yl)-5-phenylimidazo[4,5-b]pyridin-3-yl]phenyl}methyl)-3-fluoro-5-formyl-4-hydroxybenzamide], the “selectivity of complex formation, AKT1 E17K versus AKT1 WT” value at AKT1 E17K mutant protein (comparison of the spectra without competitor) is “selective for complex formation with AKT1 E17K”. For the same molecule, on AKT1 E17K mutant protein, the “covalent complex formation with AKT1 E17K mutant protein” value was “presence of a covalent complex” and the “covalent complex formation with AKT1 E17K mutant protein in presence of competitor” value was “Essentially no covalent complex formation”. At AKT1 WT [1], the “covalent complex formation with AKT1 WT protein” value is given as “only peaks corresponding to unmodified WT protein” and the “covalent complex formation with AKT1 WT protein in presence of competitor” value is reported as “only peaks corresponding to unmodified WT protein”. In addition, at AKT1 E17K, the “AKT1 E17K IC50: Selectivity vs AKT1 WT” value is 2.7, the “AKT1 E17K IC50: Selectivity vs AKT2” value stood at 48 and the IC50 was < 100 nM. For the same molecule, the half-maximal inhibitory concentration (IC50) against AKT1 WT [2] was < 100 nM. The same molecule displayed an IC50 against AKT2 of 100 to 500 nM.

Consider `Nc1ncccc1-c1nc2ccc(-c3ccccc3)nc2n1-c1ccc(CNC(=O)C2(c3cnc(C=O)c(O)c3)CC2)cc1` [Compound 56, N-({4-[2-(2-aminopyridin-3-yl)-5-phenylimidazo[4,5-b]pyridin-3-yl]phenyl}methyl)-1-(6-formyl-5-hydroxypyridin-3-yl)cyclopropane-1-carboxamide], for which, at AKT1 E17K mutant protein, the “covalent complex formation with AKT1 E17K mutant protein” value is listed as “small presence of a covalent complex” and the “covalent complex formation with AKT1 E17K mutant protein in presence of competitor” value is on record as “Essentially no covalent complex formation”. For the same molecule, at AKT1 WT [1], the “covalent complex formation with AKT1 WT protein” value is “presence of a covalent complex” and the “covalent complex formation with AKT1 WT protein in presence of competitor” value was “Essentially no covalent complex formation”. For the same molecule, at AKT1 E17K, the “AKT1 E17K IC50: Selectivity vs AKT1 WT” value is reported as 93, the “AKT1 E17K IC50: Selectivity vs AKT2” value is 490 and the half-inhibitory concentration (IC50) was < 100 nM. The IC50 against AKT1 WT [2] was > 500 nM. In addition, the IC50 against AKT2 was > 500 nM.

For `Nc1ncccc1-c1nc2ccc(-c3ccccc3)nc2n1-c1ccc(CC(=O)NCc2ccc(C=O)c(O)c2)cc1` [Compound 58, 2-{4-[2-(2-aminopyridin-3-yl)-5-phenylimidazo[4,5-b]pyridin-3-yl]phenyl}-N-[(4-formyl-3-hydroxyphenyl)methyl]acetamide], at AKT1 E17K mutant protein, the “covalent complex formation with AKT1 E17K mutant protein” value is given as “significant presence of a covalent complex” and the “covalent complex formation with AKT1 E17K mutant protein in presence of competitor” value was “Essentially no covalent complex formation”. In addition, at AKT1 WT [1], the “covalent complex formation with AKT1 WT protein” value is on record as “presence of a covalent complex” and the “covalent complex formation with AKT1 WT protein in presence of competitor” value was “Essentially no covalent complex formation”. Moreover, at AKT1 E17K, the “AKT1 E17K IC50: Selectivity vs AKT1 WT” value was found to be 8.6, the “AKT1 E17K IC50: Selectivity vs AKT2” value is 410 and the IC50 was < 100 nM. Further, the half-maximal inhibitory concentration (IC50) against AKT1 WT [2] is < 100 nM. Also, the IC50 against AKT2 was > 500 nM.

As to `Nc1ncccc1-c1nc2ccc(-c3ccccc3)nc2n1-c1ccc(CCNCc2ccc(C=O)c(O)c2)cc1` [Compound 72, 4-{[(2-{4-[2-(2-aminopyridin-3-yl)-5-phenylimidazo[4,5-b]pyridin-3-yl]phenyl}ethyl)amino]methyl}-2-hydroxybenzaldehyde], on AKT1 E17K mutant protein, the “covalent complex formation with AKT1 E17K mutant protein” value was “significant presence of a covalent complex” and the “covalent complex formation with AKT1 E17K mutant protein in presence of competitor” value is “significantly smaller level of covalent complex formation”. Further, at AKT1 WT [1], the “covalent complex formation with AKT1 WT protein” value is “significant presence of a covalent complex” and the “covalent complex formation with AKT1 WT protein in presence of competitor” value is listed as “Essentially no covalent complex formation”. Further, on AKT1 E17K, the “AKT1 E17K IC50: Selectivity vs AKT1 WT” value is on record as 1.7, the “AKT1 E17K IC50: Selectivity vs AKT2” value is reported as 18 and the IC50 is < 100 nM. Further, on AKT1 WT [2], the half-maximal inhibitory concentration (IC50) is < 100 nM. At AKT2, the IC50 is < 100 nM.

`Nc1ncccc1-c1nc2ccc(-c3ccccc3)nc2n1-c1ccc(CNC(=O)Cc2ccc(C=O)c(O)n2)cc1` [Compound 75, N-(4-(2-(2-aminopyridin-3-yl)-5-phenyl-3H-imidazo[4,5-b]pyridin-3-yl)benzyl)-2-(5-formyl-6-hydroxypyridin-2-yl)acetamide]: the “covalent complex formation with AKT1 E17K mutant protein” value at AKT1 E17K mutant protein was “only peaks corresponding to unmodified WT/mutant protein”. Moreover, the “covalent complex formation with AKT1 WT protein” value on AKT1 WT [1] is reported as “only peaks corresponding to unmodified WT/mutant protein”. At AKT1 E17K, the “AKT1 E17K IC50: Selectivity vs AKT1 WT” value stood at 1.7, the “AKT1 E17K IC50: Selectivity vs AKT2” value amounted to 3.7 and the 50% inhibitory concentration (IC50) was in the range of 100 to 500 nM. At AKT1 WT [2], this molecule registered a half-maximal inhibitory concentration (IC50) of 100 to 500 nM. Further, the IC50 against AKT2 was > 500 nM.

In the case of `CC(=O)Nc1cc(CC(=O)NCc2ccc(-n3c(-c4cccnc4N)nc4cccnc43)cc2)ccc1C=O` [Compound 91, 2-(3-acetamido-4-formylphenyl)-N-(4-(2-(2-aminopyridin-3-yl)-3H-imidazo[4,5-b]pyridin-3-yl)benzyl)acetamide], on AKT1 E17K mutant protein, the “covalent complex formation with AKT1 E17K mutant protein” value is “presence of a covalent complex” and the “covalent complex formation with AKT1 E17K mutant protein in presence of competitor” value is “Essentially no covalent complex formation”. Further, on AKT1 WT [1], the “covalent complex formation with AKT1 WT protein” value is “presence of a covalent complex” and the “covalent complex formation with AKT1 WT protein in presence of competitor” value is listed as “Essentially no covalent complex formation”. Moreover, on AKT1 E17K, the “AKT1 E17K IC50: Selectivity vs AKT1 WT” value came to 5, the “AKT1 E17K IC50: Selectivity vs AKT2” value amounted to 120 and the IC50 is < 100 nM. Besides, the 50% inhibitory concentration (IC50) against AKT1 WT [2] was 100 to 500 nM. For the same molecule, the concentration for half-maximal inhibition (IC50) on AKT2 was > 500 nM.

Turning to `Nc1ncccc1-c1nc2ccc(N3CCOCC3)nc2n1-c1ccc(CNCCc2ccc(C=O)c(O)c2)cc1` [Compound 107, 4-(2-((4-(2-(2-aminopyridin-3-yl)-5-morpholino-3H-imidazo[4,5-b]pyridin-3-yl)benzyl)amino)ethyl)-2-hydroxybenzaldehyde], on AKT1 E17K mutant protein, the “covalent complex formation with AKT1 E17K mutant protein” value was “only peaks corresponding to unmodified mutant protein” and the “covalent complex formation with AKT1 E17K mutant protein in presence of competitor” value was “only peaks corresponding to unmodified mutant protein”. Also, on AKT1 WT [1], the “covalent complex formation with AKT1 WT protein” value is given as “only peaks corresponding to unmodified WT protein” and the “covalent complex formation with AKT1 WT protein in presence of competitor” value is listed as “only peaks corresponding to unmodified WT protein”. For the same molecule, on AKT1 E17K, the “AKT1 E17K IC50: Selectivity vs AKT1 WT” value is on record as 3.5, the “AKT1 E17K IC50: Selectivity vs AKT2” value is given as 76 and the 50% inhibitory concentration (IC50) was < 100 nM. This molecule gave a half-inhibitory concentration (IC50) against AKT1 WT [2] of 100 to 500 nM. Moreover, the IC50 against AKT2 was > 500 nM.

As for `Nc1ncccc1-c1nc2cccnc2n1-c1ccc(CNCCc2ccc(C=O)c(O)c2)cc1` [Compound 114, 4-(2-((4-(2-(2-aminopyridin-3-yl)-3H-imidazo[4,5-b]pyridin-3-yl)benzyl)amino)ethyl)-2-hydroxybenzaldehyde], at AKT1 E17K mutant protein, the “covalent complex formation with AKT1 E17K mutant protein” value is given as “presence of covalent complex” and the “covalent complex formation with AKT1 E17K mutant protein in presence of competitor” value is on record as “Essentially no covalent complex formation”. For the same molecule, on AKT1 WT [1], the “covalent complex formation with AKT1 WT protein” value was “presence of covalent complex” and the “covalent complex formation with AKT1 WT protein in presence of competitor” value was “Essentially no covalent complex formation”. In addition, at AKT1 E17K, the “AKT1 E17K IC50: Selectivity vs AKT1 WT” value is recorded as 2.2, the “AKT1 E17K IC50: Selectivity vs AKT2” value was 14 and the half-maximal inhibitory concentration (IC50) is < 100 nM. On AKT1 WT [2], the IC50 lay in the range of 100 to 500 nM. Moreover, at AKT2, the IC50 was > 500 nM.

As for `Nc1ncccc1-c1nc2ccc(-c3ccccc3)nc2n1-c1ccc(CNCCc2ccc(C=O)c(O)c2F)cc1` [Compound 122, 4-{2-[({4-[2-(2-aminopyridin-3-yl)-5-phenylimidazo[4,5-b]pyridin-3-yl]phenyl}methyl)amino]ethyl}-3-fluoro-2-hydroxybenzaldehyde], at AKT1 E17K mutant protein, the “covalent complex formation with AKT1 E17K mutant protein” value is on record as “presence of covalent complex” and the “covalent complex formation with AKT1 E17K mutant protein in presence of competitor” value is recorded as “Essentially no covalent complex formation”. Further, on AKT1 WT [1], the “covalent complex formation with AKT1 WT protein” value is reported as “presence of covalent complex” and the “covalent complex formation with AKT1 WT protein in presence of competitor” value is on record as “Essentially no covalent complex formation”. Besides, at AKT1 E17K, the “AKT1 E17K IC50: Selectivity vs AKT1 WT” value came out at 1.3, the “AKT1 E17K IC50: Selectivity vs AKT2” value turned out to be 3.2 and the IC50 is < 100 nM. On AKT1 WT [2], the half-maximal inhibitory concentration (IC50) is < 100 nM. Further, the IC50 at AKT2 was < 100 nM.

For `Nc1ncccc1-c1nc2ccc(-c3ccccc3)nc2n1-c1ccc(CNC(=O)Cc2ccc(C=O)c(O)c2)cc1` [Compound 132, N-(4-(2-(2-aminopyridin-3-yl)-5-phenyl-3H-imidazo[4,5-b]pyridin-3-yl)benzyl)-2-(4-formyl-3-hydroxyphenyl)acetamide], on AKT1 E17K mutant protein, the “covalent complex formation with AKT1 E17K mutant protein” value was “presence of covalent complex” and the “covalent complex formation with AKT1 E17K mutant protein in presence of competitor” value is “Essentially no covalent complex formation”. Further, on AKT1 WT [1], the “covalent complex formation with AKT1 WT protein” value was “presence of covalent complex” and the “covalent complex formation with AKT1 WT protein in presence of competitor” value was “Essentially no covalent complex formation”. On AKT1 E17K, the “AKT1 E17K IC50: Selectivity vs AKT1 WT” value was found to be 3.2, the “AKT1 E17K IC50: Selectivity vs AKT2” value came to 23 and the half-maximal inhibitory concentration (IC50) is < 100 nM. In addition, at AKT1 WT [2], the IC50 is < 100 nM. Besides, the IC50 against AKT2 fell in the range of 100 to 500 nM.

For orientation: IC50 means the point on the concentration scale where inhibition reaches its midpoint. Higher therefore signals weaker potency in that assay.
